Source: BigSolDB 2.1

**Q.** Which results are given for `Clc1ccccc1C(c1ccccc1)(c1ccccc1)n1ccnc1`?
**A.** solubility (mole fraction) (in ethyl acetate, 283.11 K): 0.00714; solubility (mole fraction) (in ethyl acetate, 288.17 K): 0.00838; solubility (mole fraction) (in ethyl acetate, 293.24 K): 0.01; solubility (mole fraction) (in ethyl acetate, 298.15 K): 0.0119; solubility (mole fraction) (in ethyl acetate, 303.14 K): 0.0142; solubility (mole fraction) (in ethyl acetate, 308.18 K): 0.0168; solubility (mole fraction) (in ethyl acetate, 313.12 K): 0.0198; solubility (mole fraction) (in ethyl acetate, 318.16 K): 0.0233; solubility (mole fraction) (in ethyl acetate, 323.19 K): 0.0275; solubility (mole fraction) (in isobutanol, 283.09 K): 0.0157; solubility (mole fraction) (in isobutanol, 288.15 K): 0.0202; solubility (mole fraction) (in isobutanol, 293.11 K): 0.0251; solubility (mole fraction) (in isobutanol, 298.17 K): 0.0311; solubility (mole fraction) (in isobutanol, 303.16 K): 0.0385; solubility (mole fraction) (in isobutanol, 308.21 K): 0.0477; solubility (mole fraction) (in isobutanol, 313.15 K): 0.0589; solubility (mole fraction) (in isobutanol, 318.14 K): 0.0722; solubility (mole fraction) (in isobutanol, 323.18 K): 0.0873; solubility (mole fraction) (in isopentanol, 283.13 K): 0.0157; solubility (mole fraction) (in isopentanol, 288.18 K): 0.0193; solubility (mole fraction) (in isopentanol, 293.14 K): 0.0239; solubility (mole fraction) (in isopentanol, 298.16 K): 0.0296; solubility (mole fraction) (in isopentanol, 303.13 K): 0.0366; solubility (mole fraction) (in isopentanol, 308.18 K): 0.045; solubility (mole fraction) (in isopentanol, 313.12 K): 0.0548; solubility (mole fraction) (in isopentanol, 318.15 K): 0.0668; solubility (mole fraction) (in isopentanol, 323.19 K): 0.081; solubility (mole fraction) (in isopropanol, 283.1 K): 0.00571; solubility (mole fraction) (in isopropanol, 288.15 K): 0.00723; solubility (mole fraction) (in isopropanol, 293.13 K): 0.00916; solubility (mole fraction) (in isopropanol, 298.16 K): 0.0115; solubility (mole fraction) (in isopropanol, 303.12 K): 0.0145; solubility (mole fraction) (in isopropanol, 308.15 K): 0.0185; solubility (mole fraction) (in isopropanol, 313.19 K): 0.0235; solubility (mole fraction) (in isopropanol, 318.16 K): 0.03; solubility (mole fraction) (in isopropanol, 323.15 K): 0.0384; solubility (mole fraction) (in isopropyl acetate, 283.1 K): 0.00518; solubility (mole fraction) (in isopropyl acetate, 288.16 K): 0.00615; solubility (mole fraction) (in isopropyl acetate, 293.2 K): 0.0073; solubility (mole fraction) (in isopropyl acetate, 298.19 K): 0.00868; solubility (mole fraction) (in isopropyl acetate, 303.15 K): 0.0102; solubility (mole fraction) (in isopropyl acetate, 308.12 K): 0.0121; solubility (mole fraction) (in isopropyl acetate, 313.15 K): 0.0144; solubility (mole fraction) (in isopropyl acetate, 318.19 K): 0.0171; solubility (mole fraction) (in isopropyl acetate, 323.17 K): 0.0203; solubility (mole fraction) (in methyl acetate, 283.15 K): 0.00661; solubility (mole fraction) (in methyl acetate, 288.17 K): 0.00792; solubility (mole fraction) (in methyl acetate, 293.1 K): 0.00953; solubility (mole fraction) (in methyl acetate, 298.21 K): 0.0114; solubility (mole fraction) (in methyl acetate, 303.15 K): 0.0137; solubility (mole fraction) (in methyl acetate, 308.16 K): 0.0164; solubility (mole fraction) (in methyl acetate, 313.12 K): 0.0196; solubility (mole fraction) (in methyl acetate, 318.14 K): 0.0235; solubility (mole fraction) (in methyl acetate, 323.18 K): 0.0281; solubility (mole fraction) (in methyl propionate, 283.13 K): 0.00984; solubility (mole fraction) (in methyl propionate, 288.17 K): 0.0117; solubility (mole fraction) (in methyl propionate, 293.21 K): 0.0138; solubility (mole fraction) (in methyl propionate, 298.15 K): 0.0163; solubility (mole fraction) (in methyl propionate, 303.14 K): 0.0192; solubility (mole fraction) (in methyl propionate, 308.17 K): 0.0227; solubility (mole fraction) (in methyl propionate, 313.08 K): 0.0268; solubility (mole fraction) (in methyl propionate, 318.19 K): 0.0316; solubility (mole fraction) (in methyl propionate, 323.15 K): 0.0373; solubility (mole fraction) (in n-butanol, 283.16 K): 0.0151; solubility (mole fraction) (in n-butanol, 288.11 K): 0.0188; solubility (mole fraction) (in n-butanol, 293.15 K): 0.0235; solubility (mole fraction) (in n-butanol, 298.2 K): 0.0289; solubility (mole fraction) (in n-butanol, 303.14 K): 0.0356; solubility (mole fraction) (in n-butanol, 308.18 K): 0.0439; solubility (mole fraction) (in n-butanol, 313.15 K): 0.0538; solubility (mole fraction) (in n-butanol, 318.17 K): 0.0659; solubility (mole fraction) (in n-butanol, 323.16 K): 0.0798; solubility (mole fraction) (in n-butyl acetate, 283.16 K): 0.00743; solubility (mole fraction) (in n-butyl acetate, 288.19 K): 0.00886; solubility (mole fraction) (in n-butyl acetate, 293.14 K): 0.0104; solubility (mole fraction) (in n-butyl acetate, 298.16 K): 0.0124; solubility (mole fraction) (in n-butyl acetate, 303.11 K): 0.0148; solubility (mole fraction) (in n-butyl acetate, 308.09 K): 0.0176; solubility (mole fraction) (in n-butyl acetate, 313.25 K): 0.0211; solubility (mole fraction) (in n-butyl acetate, 318.15 K): 0.0251; solubility (mole fraction) (in n-butyl acetate, 323.13 K): 0.0299; solubility (mole fraction) (in n-heptanol, 283.17 K): 0.0108; solubility (mole fraction) (in n-heptanol, 288.14 K): 0.0151; solubility (mole fraction) (in n-heptanol, 293.18 K): 0.0198; solubility (mole fraction) (in n-heptanol, 298.16 K): 0.0251; solubility (mole fraction) (in n-heptanol, 303.1 K): 0.0316; solubility (mole fraction) (in n-heptanol, 308.15 K): 0.039; solubility (mole fraction) (in n-heptanol, 313.19 K): 0.0474; solubility (mole fraction) (in n-heptanol, 318.08 K): 0.0578; solubility (mole fraction) (in n-heptanol, 323.16 K): 0.0695; solubility (mole fraction) (in n-hexanol, 283.08 K): 0.0145; solubility (mole fraction) (in n-hexanol, 288.13 K): 0.0185; solubility (mole fraction) (in n-hexanol, 293.16 K): 0.0231; solubility (mole fraction) (in n-hexanol, 298.15 K): 0.0287; solubility (mole fraction) (in n-hexanol, 303.19 K): 0.0356; solubility (mole fraction) (in n-hexanol, 308.14 K): 0.0432; solubility (mole fraction) (in n-hexanol, 313.1 K): 0.053; solubility (mole fraction) (in n-hexanol, 318.21 K): 0.064; solubility (mole fraction) (in n-hexanol, 323.17 K): 0.0769; solubility (mole fraction) (in n-octanol, 283.06 K): 0.0118; solubility (mole fraction) (in n-octanol, 288.15 K): 0.0159; solubility (mole fraction) (in n-octanol, 293.13 K): 0.0203; solubility (mole fraction) (in n-octanol, 298.19 K): 0.0247; solubility (mole fraction) (in n-octanol, 303.11 K): 0.0301; solubility (mole fraction) (in n-octanol, 308.22 K): 0.0366; solubility (mole fraction) (in n-octanol, 313.18 K): 0.0453; solubility (mole fraction) (in n-octanol, 318.09 K): 0.0553; solubility (mole fraction) (in n-octanol, 323.17 K): 0.0661; solubility (mole fraction) (in n-pentanol, 283.19 K): 0.0169; solubility (mole fraction) (in n-pentanol, 288.15 K): 0.0213; solubility (mole fraction) (in n-pentanol, 293.13 K): 0.0269; solubility (mole fraction) (in n-pentanol, 298.1 K): 0.0325; solubility (mole fraction) (in n-pentanol, 303.12 K): 0.04; solubility (mole fraction) (in n-pentanol, 308.15 K): 0.0486; solubility (mole fraction) (in n-pentanol, 313.07 K): 0.0587; solubility (mole fraction) (in n-pentanol, 318.14 K): 0.0707; solubility (mole fraction) (in n-pentanol, 323.17 K): 0.085; solubility (mole fraction) (in n-propanol, 283.15 K): 0.0144; solubility (mole fraction) (in n-propanol, 288.12 K): 0.0172; solubility (mole fraction) (in n-propanol, 293.14 K): 0.0213; solubility (mole fraction) (in n-propanol, 298.18 K): 0.0263; solubility (mole fraction) (in n-propanol, 303.16 K): 0.0327; solubility (mole fraction) (in n-propanol, 308.15 K): 0.0405; solubility (mole fraction) (in n-propanol, 313.11 K): 0.05; solubility (mole fraction) (in n-propanol, 318.17 K): 0.0618; solubility (mole fraction) (in n-propanol, 323.18 K): 0.0761; solubility (mole fraction) (in n-propyl acetate, 283.15 K): 0.008; solubility (mole fraction) (in n-propyl acetate, 288.14 K): 0.0095; solubility (mole fraction) (in n-propyl acetate, 293.19 K): 0.0112; solubility (mole fraction) (in n-propyl acetate, 298.17 K): 0.0132; solubility (mole fraction) (in n-propyl acetate, 303.16 K): 0.0156; solubility (mole fraction) (in n-propyl acetate, 308.12 K): 0.0185; solubility (mole fraction) (in n-propyl acetate, 313.21 K): 0.0217; solubility (mole fraction) (in n-propyl acetate, 318.15 K): 0.0257; solubility (mole fraction) (in n-propyl acetate, 323.13 K): 0.0303; solubility (mole fraction) (in sec-butanol, 283.15 K): 0.0101; solubility (mole fraction) (in sec-butanol, 288.16 K): 0.013; solubility (mole fraction) (in sec-butanol, 293.21 K): 0.0165; solubility (mole fraction) (in sec-butanol, 298.18 K): 0.021; solubility (mole fraction) (in sec-butanol, 303.13 K): 0.0267; solubility (mole fraction) (in sec-butanol, 308.15 K): 0.0338; solubility (mole fraction) (in sec-butanol, 313.19 K): 0.0425; solubility (mole fraction) (in sec-butanol, 318.11 K): 0.0532; solubility (mole fraction) (in sec-butanol, 323.14 K): 0.0657
